Test systems include M19-MEL; SNB-78; XF498; KM-20L2; DLD-1; LXFL 529; HOP-18; DMS-114; RXF 631.
Holding throughout (experiment): DTP human tumour cell line panel, 48 h

Each structure is given as a SMILES string.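 Test compounds were applied to cells in 96-well plates for 48 hours at 5 doses. GI50 = concentration required for 50% inhibition of growth.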 Activity calls are given as the source filed them. Cut-off read from the data, not from the text of the source: active = GI50 up to about 1.1 µM and inactive = higher.

For orientation: GI50 means the concentration that inhibits growth by half.

`Cn1nc2ccc3nccc(NCCNCCO)c3c2n1`: the GI50 is 40.4 µM (inactive) in the assay on M19-MEL; 36.2 µM (inactive) in the assay with SNB-78; 35 µM (inactive) with XF498; 25.8 µM (inactive) with KM-20L2; 33.2 µM (inactive) in the assay with DLD-1; 39.2 µM (inactive) in the assay on LXFL 529.

`CCOc1ccccc1Nc1nc(C)c(C(=O)CC(=O)C(=O)Nc2ccccc2)s1`: the GI50 in the assay on HOP-18 was > 100 µM (inactive); in the assay on M19-MEL, 36.5 µM (inactive); with DMS-114, 35.5 µM (inactive); in the assay with SNB-78, > 100 µM (inactive); in the assay on XF498 it was 31.6 µM (inactive); with KM-20L2 it was 66.4 µM (inactive). Moreover, the GI50 with DLD-1 was 37.3 µM (inactive); with LXFL 529 it was 43.3 µM (inactive).

Take `CCCCCCCCCC(=O)N[C@H]1CCc2cc(OC)c(OC)c(OC)c2-c2ccc(SC)c(=O)cc21`: the concentration for 50% growth inhibition (GI50) in the assay with M19-MEL was 0.0445 µM (active); in the assay on RXF 631, 0.0197 µM (active); in the assay on DMS-114, 0.0188 µM (active); in the assay with SNB-78, 0.0405 µM (active); in the assay on XF498 it was 0.022 µM (active); in the assay on KM-20L2 it was 0.0198 µM (active). For the same molecule, the GI50 is 0.0352 µM (active) in the assay with DLD-1 and 0.0297 µM (active) in the assay on LXFL 529.

Consider `CCCCCCCCCC[C@@H](O)[C@@H]1CC[C@@H]([C@@H]2CC[C@@H]([C@@H](O)CCCCCCCCCC[C@H](O)CC3=CC(C)OC3=O)O2)O1` (some centres not stated), for which the GI50 with M19-MEL is 2.22 µM (inactive); with RXF 631, 1.97 µM (inactive); with DMS-114 it was < 0.01 µM (active); in the assay with SNB-78 it was 3.8 µM (inactive); in the assay with KM-20L2 it was 13.6 µM (inactive); in the assay with DLD-1, 3.31 µM (inactive). The GI50 with LXFL 529 is 3.82 µM (inactive).

As to `CC(=O)O[C@@]12CO[C@@H]1C[C@H](O)[C@@]1(C)C(=O)[C@H](O)C3=C(C)[C@@H](OC(=O)[C@H](O)[C@@H](NC(=O)OC(C)(C)C)c4ccccc4)C[C@@](O)([C@@H](OC(=O)c4ccccc4)[C@H]21)C3(C)C` [DOCETAXEL], the GI50 in the assay with HOP-18 was 29.9 µM (inactive); in the assay with M19-MEL, < 0.01 µM (active); with RXF 631 it was < 0.01 µM (active); in the assay on DMS-114, < 0.01 µM (active); in the assay on KM-20L2, < 0.01 µM (active); in the assay on DLD-1 it was < 0.01 µM (active). The GI50 in the assay with LXFL 529 was < 0.01 µM (active).

`CC1(OCc2ccccc2)C(=O)N2C1N(C(=O)OCc1ccccc1)CC2(C)C` (configuration not stated): the GI50 was 32.1 µM (inactive) in the assay with M19-MEL; 31.3 µM (inactive) in the assay on DMS-114; 24.8 µM (inactive) with XF498; 55.8 µM (inactive) in the assay on KM-20L2; 54.3 µM (inactive) with DLD-1; 31.6 µM (inactive) in the assay on LXFL 529.

For `C=CC(Br)(CBr)CCC(Br)C(C)(C)Br` (configuration not stated), the GI50 is 15.5 µM (inactive) with HOP-18; 14.3 µM (inactive) with M19-MEL; 11.6 µM (inactive) in the assay on DMS-114; 5.56 µM (inactive) with SNB-78; 17.2 µM (inactive) in the assay on DLD-1; 14.5 µM (inactive) in the assay on LXFL 529.

Take `CCOC(=O)C(C)(C)Oc1ccc2c(-c3ccc(Cl)cc3)c(-c3ccc(Cl)cc3)c(=O)oc2c1`: the GI50 with M19-MEL, in the assay on RXF 631, in the assay on DMS-114, in the assay on KM-20L2, with DLD-1 and in the assay on LXFL 529 was > 100 µM (inactive) throughout.

As for `O=[N+]([O-])c1ccc(-c2ccc(C3=Nn4c(CNc5ccccc5Cl)nnc4SC3)o2)cc1`, the GI50 in the assay with M19-MEL was > 100 µM (inactive); in the assay on SNB-78 it was > 100 µM (inactive); in the assay with XF498 it was > 100 µM (inactive); in the assay on KM-20L2, > 100 µM (inactive); with DLD-1 it was > 100 µM (inactive); in the assay on LXFL 529, 82.4 µM (inactive).

For `Oc1cc(-c2cccc(Cl)c2)nc2cc3c(cc12)OCO3`, the GI50 in the assay with HOP-18 was 1.5 µM (inactive); in the assay on M19-MEL it was 0.327 µM (active); with DMS-114, 0.296 µM (active); in the assay on XF498, 1.4 µM (inactive); in the assay on DLD-1, 0.245 µM (active); with LXFL 529, 0.19 µM (active).

As to `Cn1c(=O)ccc2cc(C(=O)c3ccccc3)ccc21`, the GI50 in the assay on HOP-18 is 36.6 µM (inactive); in the assay with M19-MEL, 55.3 µM (inactive); in the assay on RXF 631, 64.3 µM (inactive); with DMS-114 it was 22.1 µM (inactive); in the assay with XF498, 16.7 µM (inactive); with KM-20L2 it was 73.5 µM (inactive). The results for the GI50 in the assay with DLD-1 and in the assay with LXFL 529 were > 100 µM (inactive) and 45.8 µM (inactive), respectively.

For `CCN(CC)CC(C)(C)C(=O)/C=C/c1ccc(/C=C/C(=O)C(C)(C)CN(CC)CC)cc1`, the GI50 with M19-MEL is 0.687 µM (active); with DMS-114 it was 0.266 µM (active); with SNB-78 it was 1.41 µM (inactive); in the assay with XF498, 0.317 µM (active); in the assay with KM-20L2, 0.617 µM (active); in the assay with DLD-1, 0.341 µM (active). In addition, the GI50 in the assay with LXFL 529 is 0.188 µM (active).

For `CC(=O)N1CCC2(C=Nc3ccccc32)CC1`, the GI50 with HOP-18, with M19-MEL, with DMS-114, with SNB-78, in the assay on XF498 and with KM-20L2 was > 100 µM (inactive) throughout. For the same molecule, the GI50 with DLD-1 and in the assay with LXFL 529 was > 100 µM (inactive) each time.

On to `OC1[C@H]([C@H]2CCCC[C@@H]2O)CCC[C@@H]1[C@@H]1CCCC[C@H]1O` (some centres not stated), for which the GI50 was > 100 µM (inactive) in the assay with HOP-18; > 100 µM (inactive) with M19-MEL; > 100 µM (inactive) with DMS-114; 48.2 µM (inactive) in the assay with SNB-78; > 100 µM (inactive) in the assay with XF498; > 100 µM (inactive) in the assay with KM-20L2. Further, the GI50 with DLD-1 and in the assay on LXFL 529 was > 100 µM (inactive) throughout.

For the molecule `COc1ccc(NC(=O)C2C(=O)N(c3ccc(OC)cc3)C(=O)/C2=N/O)cc1` (configuration not stated), the GI50 with HOP-18 was 17.9 µM (inactive); in the assay on M19-MEL, 26.5 µM (inactive); with DMS-114, 35.6 µM (inactive); in the assay on SNB-78 it was 46.8 µM (inactive); with XF498 it was 14 µM (inactive); with KM-20L2, 48 µM (inactive). In addition, the GI50 in the assay on DLD-1 was 64.4 µM (inactive); in the assay with LXFL 529, 25.2 µM (inactive).

`CC1=C(C(=O)Nc2ccccc2)C(c2ccc(N(C)C)cc2)C(C(=O)Nc2ccccc2)=C(C)N1`: the GI50 in the assay with HOP-18 is > 100 µM (inactive); in the assay on M19-MEL it was 0.685 µM (active); with DMS-114, 0.211 µM (active); in the assay with SNB-78, > 37.1 µM (inactive); with XF498, > 100 µM (inactive); with KM-20L2, 0.439 µM (active). Further, the results for the GI50 in the assay with DLD-1 and in the assay on LXFL 529 were 8.36 µM (inactive) and 0.175 µM (active), respectively.

Regarding `CC[C@]12C=CCN3CCC4(c5cc([C@@]6(C(=O)OC)CC7CN(CCc8c6[nH]c6ccccc86)C[C@@H]6CCCC[C@H]76)c(OC)cc5N(C)C4[C@](O)(C(=O)OC)C1OC(C)=O)[C@@H]32` (some centres not stated), the concentration for 50% growth inhibition (GI50) in the assay on M19-MEL, in the assay on DMS-114, in the assay with SNB-78, with XF498, in the assay with KM-20L2 and in the assay on DLD-1 was < 0.01 µM (active) throughout. In addition, the GI50 in the assay on LXFL 529 was < 0.01 µM (active).

On to `COc1ccc(/C=C\c2cc(OC)c(OC)c(OC)c2)cc1OC`, for which the GI50 in the assay on HOP-18 is 0.411 µM (active); in the assay with RXF 631, 0.195 µM (active); with DMS-114, 0.105 µM (active); with SNB-78 it was 0.0171 µM (active); in the assay on XF498, 0.122 µM (active); in the assay on KM-20L2, 0.0771 µM (active). The GI50 was 0.173 µM (active) in the assay with DLD-1 and 0.186 µM (active) with LXFL 529.

As to `N#Cc1cc([N+](=O)[O-])ccc1NC(=O)C(=O)Nn1c(S)nc2ccccc2c1=O`, the GI50 in the assay with HOP-18, in the assay on M19-MEL, with RXF 631, in the assay on SNB-78, in the assay on XF498 and in the assay with KM-20L2 was > 100 µM (inactive) each time. In addition, the GI50 with DLD-1 and with LXFL 529 was > 100 µM (inactive) throughout.

As for `CCOC(=O)C(C)(C)Oc1ccc2c(-c3ccccc3)cc(=O)oc2c1`, the GI50 in the assay with M19-MEL was 32.2 µM (inactive); in the assay with DMS-114 it was 21.9 µM (inactive); in the assay with XF498, 16.4 µM (inactive); in the assay on KM-20L2, 30.6 µM (inactive); in the assay with DLD-1 it was 25.3 µM (inactive); in the assay with LXFL 529 it was 25.3 µM (inactive).

Take `COC(=O)C1Cc2c([nH]c3ccccc23)[C@H](CC(C)C)N1` (some centres not stated): the GI50 in the assay on HOP-18, in the assay with M19-MEL, in the assay on DMS-114, in the assay with SNB-78, in the assay on XF498 and with KM-20L2 was > 100 µM (inactive) throughout. In addition, the GI50 in the assay on DLD-1 and with LXFL 529 was > 100 µM (inactive) each time.

With `c1ccc2c(c1)N=C(c1cccc3ccccc13)CC(c1ccc3c(c1)OCO3)S2` (configuration not stated), the GI50 in the assay on HOP-18, in the assay with M19-MEL, in the assay on RXF 631, in the assay on SNB-78, with XF498 and in the assay with KM-20L2 was > 100 µM (inactive) throughout. Besides, the GI50 with DLD-1 and in the assay with LXFL 529 was > 100 µM (inactive) each time.

Take `CC(=O)/C(=N\O)C(=O)NCc1ccccc1`: the GI50 in the assay with HOP-18 is > 100 µM (inactive); in the assay with RXF 631, > 100 µM (inactive); with DMS-114 it was 29.4 µM (inactive); in the assay on SNB-78, > 100 µM (inactive); in the assay on KM-20L2, > 100 µM (inactive); with DLD-1 it was > 100 µM (inactive). In the assay on LXFL 529, the GI50 is > 100 µM (inactive).

Regarding `CN(C)CCNC(=O)c1cccc2c1nc(-c1ccc(F)cc1)c1ccccc12`, the GI50 in the assay on HOP-18 is 14.4 µM (inactive); in the assay on M19-MEL, 5.52 µM (inactive); in the assay on DMS-114 it was 4.42 µM (inactive); in the assay on SNB-78, 10.7 µM (inactive); in the assay on DLD-1, 2.45 µM (inactive).

For `Cc1cccc(C(C)C)c1NC(=O)CCl`, the GI50 in the assay with HOP-18 was 53.7 µM (inactive); in the assay on M19-MEL, 51.6 µM (inactive); in the assay with DMS-114, 20.8 µM (inactive); in the assay with SNB-78, 48.9 µM (inactive); with KM-20L2 it was 45.4 µM (inactive); with DLD-1, 65 µM (inactive). Moreover, the GI50 with LXFL 529 is 76.7 µM (inactive).

These data come from ChEMBL document CHEMBL1201862, “PubChem BioAssay data set” (2004).
